Two compounds from patent publication US20250009716A1, “NOVEL INHIBITORS OF CLAUDIN-1 FOR THERAPEUTIC INTERVENTIONS” (BOARD OF REGENTS OF THE UNIVERSITY OF NEBRASKA, priority 2021, published 2025) can be followed below.

Series [1] in a line: Cell survival assay of three inhibitors (FIG. 2B). The format is cell-based. As to the method:
(A) In-silico 3D-structure of claudin-1, cavities that can be targeted by small molecules were defined using Molegro Virtual Docker. (B) Cell survival assay showing effects of three different inhibitors (I1, I2 and 16). […] (C) Effect of 16 treatment (72 hours) upon resistance to anoikis in claudin-1 overexpressing SW480 cells and claudin-1 deficient HCT116 cells. (D) Effect of 16 treatment on cell invasion in SW480claudin-1 cells. (E) Effect of inhibitor 16 on xenograft tumors. Tumors were induced for two weeks after which 16 was injected i.p (10 mg/kg). Effect on tumor growth was monitored.

Series [2] is described as follows: Pharmacokinetics after single i.v. dose. The format is in vivo, mice. As to the method: To determine the in vivo characteristics of this drug, a pharmacokinetic and tissue distribution study on 16 was performed. Following a single i.v. dose of 16 (1 mg/kg) in mice (C57B/16; n=5), serial blood samples were obtained at 0.08, 0.25, 0.75, 2, 4, 6, 8 and 24 hours after the injection and plasma samples were analyzed for 16 concentrations. Pharmacokinetic parameter values were obtained from the plasma concentration-time data using standard non-compartmental methods (WinNonlin, PharSight Corp). […] To assess the tissue distribution of 16, mice were sacrificed at 2, 8 and 24 hours after the i.v. administration of the drug. Measurable concentrations of 16 were detected in all studied tissues at 2, 8, and 24 h. […] Next, metabolic stability studies of 16 was evaluated using mouse liver S9 fractions for the in vitro assessment of phase I and II metabolism. […] Testosterone, 7-HC and diclofenac were used as positive controls, ensuring proper incubation conditions were maintained. […] The results of these in vitro drug metabolism studies guided the rational development of 16 structural analogs.
Pharmacokinetic parameter values were estimated from the plasma concentration-time data using standard noncompartmental methods and software (WinNonlin, PharSight Corp). […] Terminal elimination half-life (t1/2) was calculated by dividing 0.693 by terminal elimination rate constant Iz. Drug clearance (Cl) was calculated using standard equations. Area under the plasma concentration-time curve from 0 to 24 hours (AUCO-24) was calculated with the linear-log trapezoidal rule. The area under the plasma concentration-time curve from 0 to infinity (AUCO-infinity) was calculated as AUCO-24+C24/Iz. The absolute bioavailability (F) was calculated as the ratio between the AUCO-infinity from oral and intravenous routes using standard equations (FIG. 39).

Series [3] in a line: Metabolic stability in mouse liver S9 fractions. The format is in vitro ADME. How it is done:
To determine the in vivo characteristics of this drug, a pharmacokinetic and tissue distribution study on 16 was performed. Following a single i.v. dose of 16 (1 mg/kg) in mice (C57B/16; n=5), serial blood samples were obtained at 0.08, 0.25, 0.75, 2, 4, 6, 8 and 24 hours after the injection and plasma samples were analyzed for 16 concentrations. Pharmacokinetic parameter values were obtained from the plasma concentration-time data using standard non-compartmental methods (WinNonlin, PharSight Corp). […] To assess the tissue distribution of 16, mice were sacrificed at 2, 8 and 24 hours after the i.v. administration of the drug. Measurable concentrations of 16 were detected in all studied tissues at 2, 8, and 24 h. […] Next, metabolic stability studies of 16 was evaluated using mouse liver S9 fractions for the in vitro assessment of phase I and II metabolism. […] Testosterone, 7-HC and diclofenac were used as positive controls, ensuring proper incubation conditions were maintained. […]
(§1) Metabolic stability and reaction phenotyping: The in vitro metabolic stability of studies was determined using mice and human liver microsomes and S9 fractions (XenoTech, LLC, Lenexa, KS, USA) following standard protocols (33, 35, 36). […] Drug concentrations were determined using LC-MS/MS. […] UGTs are analyzed in Corning® Supersomes™ if incubation of HLMs with UDPGA also results in metabolite formation.

Series [4] has as its system HCT116CLDN2 cells. The series is described as follows: Cell viability, specificity for CLDN1. The format is cell-based. Conditions: cells overexpressing another tight junction protein. How it is done:
(§2) SW480^claudin-1, IEC-6 (normal cells), and HCT116^CLDN2 cells were treated with different concentrations of PDS-0330 and cell viability was determined.
(§3) To this end, a library of molecules was synthesized in order to develop an initial SAR evaluation. The first compounds tested eliminated the acylated (thio) urea as well as the napthyl group and evaluated just the urea/phenyl compounds (Compounds 1-6). The methoxy group of the naphthalene ring system was needed when the benzimidazole group was present (16 vs. Compound 8). […] The result of metabolic stability was expressed as the percentage of drug remaining at each time. […] To further determine the effect of PDS-0330 on p-Src expression and association, cells were treated with Compound 1, 16 and PDS-0330. Expression and association with p-Src was unaffected with Compound 1 (negative control). The specificity of PDS-0330 for CLDN1 was further confirmed by treating SW480^CLDN1, HCT116^CLDN2 (overexpressing another tight junction protein) or normal IEC-6 cells with PDS-0330 (FIG. 12).

Series [5] has as its system IEC-6 (normal cells). The series is described as follows: Cell viability, specificity for CLDN1. The format is cell-based. How it is done:
as §2, §3

The test system of series [6] is SW480CLDN1 cells. The series is described as follows: Cell viability, specificity for CLDN1. The format is cell-based. As to the method: as §2, §3
Series [7] concerns claudin-1 overexpressed patient-derived xenograft. The series is described as follows: Patient-derived xenograft (PDX) tumors. Particulars: 5 mg/kg and 10 mg/kg. The format is in vivo, nude mice. How it is done: Representative images of tumors from the vehicle and PDS-0330 (5 mg/kg and 10 mg/kg)-treated claudin-1 overexpressed PDX implanted nude mice.
Tumor volume was measured using calipers over time (n=5 mice per group). The formation of flank xenograft tumors in claudin-1 overexpressed PDX implanted nude mice was examined between vehicle and PDS-0330 (5 mg/kg and 10 mg/kg) treatment (n=5 mice per group). For graphs, data represent mean±SD; *, P<0.05; **, P<0.01; ***, P<0.001 & ****, P<0.0001.
Establishment of fresh patient derived xenograft (PDX) with tumors from the operating room. Human patient colon cancers were excised under standard sterile conditions. Initially, tumor fragments were implanted subcutaneously within 30 min of patient surgery over the right and left upper and lower flanks in nude mice. Subcutaneous tumors were allowed to grow for 2-4 weeks until large enough to supply adequate tumor for orthotopic implantation for PDOX models.

For series [8], the system named is p-Src and p-EphA2 in SW480claudin-1 cells. Briefly: Phosphorylation of Src and EphA2 versus dasatinib. The format is cell-based. As to the method: Effects on (A) phosphorylation of Src and EphA2 and (B) cell survival (MTT assay) were determined.
Series [9] in a line: Phase I metabolism in human liver microsomes. The format is in vitro ADME. Conditions: 60 minutes, compared to 16.
Source text: The result of the metabolic stability study was expressed as the % drug conc. remaining.
as §3, §1

Series [10] concerns SW620 cells xenograft tumors. Briefly: SW620 xenograft tumors. The format is in vivo, athymic mice. How it is done: SW620 cells were injected into dorsal flanks of athymic mice to form xenograft tumors. PDS-0330 was injected (5 and 10 mg/kg) when tumors became palpable. Effect on tumor volume and size was determined in time-dependent manner.
The development of flank xenograft tumors in claudin-1 overexpressed SW620 cells injected nude mice was examined between vehicle and PDS-0330 (5 mg/kg and 10 mg/kg) treatment (n=5 mice per group). Representative images of tumor containing mice from the vehicle and PDS-0330 (10 mg/kg).

Entries after “also recorded” stand apart in the source; their conditions may differ.

Turning to `COc1cc2ccccc2cc1C(=O)NC(=S)Nc1ccc(-c2nc3ccccc3[nH]2)cc1` [Compound 16], the “effect on cell survival, compared among I1, I2 and 16” value in series [1] is listed as “most effective”. Further, in [2] (1 mg/kg i.v.), the clearance worked out at 13 mL/min/kg and the “time up to which detectable in plasma” value is reported as “up to 24 hrs”. In series [2] (1 mg/kg i.v., plasma), this compound had a peak concentration of 798 ng/mL. Also, the “mouse behavior or weight” value in series [2] (24 hours after single i.v. injection) was “no change in mouse behavior or weight”. For the same compound, the AUC in [2] (C57B/16, mouse, iv, 1 mg/kg i.v., plasma) was determined as 1210 ng·h/mL. Further, in series [2] (C57B/16, mouse, plasma, iv, 1 mg/kg i.v., read-out: elimination t1/2 (converted)), the half-life is 7 h. Further, the Vd in [2] (C57B/16, mouse, plasma, iv, 1 mg/kg i.v., read-out: volume of distribution) is 8.4 L/kg. Also, the primary metabolites identified entry in series [3] is “acetylation and hydroxylation with subsequent glucuronidation”. The drug remaining in [3] (after 60 minutes, phase I and II metabolism) is listed as 30%.

In the case of `O=C(NC(=S)Nc1ccc(-c2nc3ccccc3o2)cc1)c1ccc2ccccc2c1` [PDS-0330], the “effect on cell viability” value in series [4] and in [5] was “not affected” in each case. For the same compound, the “percentage of dead cells” value in series [6] is listed as “significant increase in the percentage of dead cells”. The tumor formation result in series [7] was “inhibits tumor formation”. In series [8], the “p-EphA2 and p-Src expression” value was “inhibited p-EphA2 expression along with p-Src; also recorded: more effective in inhibiting cell survival and p-EphA2 expression”. Besides, the metabolic stability result in series [9] was “metabolically stable over 60 minutes”. Moreover, in [10] (5 and 10 mg/kg), the tumor size result is “reduces tumor size in mice”. Besides, the tumor weight result in series [10] (mouse, in vivo) was “significantly inhibited tumor weight”.

By clearance is commonly meant the rate of elimination divided by the concentration. By AUC is commonly meant concentration integrated over time. Low readings indicate low exposure, high ones high exposure.
